The record followed here is patent publication US9857375B2, “Cancer marker and utilization thereof” (PUBLIC UNIVERSITY CORPORATION NARA MEDICAL UNIVERSITY, priority 2012, dated 2018).

For data set [1], the system named is human urothelial cancer cell strain KU7. In words: cell survival assay (MTS assay) after addition of thapsigargin. The format is cell-based. As to conditions: thapsigargin 0.1-2.5 μM, 72 hours after addition. As for the experimental part: To a culture solution prepared by culturing, for 24 hours, cells transfected with RNA in the same manner as in Example 2, thapsigargin (Sigma Corporation), which is an endoplasmic reticulum stress agent, was added so that predetermined concentrations (0.1 μM, 0.5 μM, 1 μM, and 2.5 μM) were achieved.
Seventy-two hours after the addition of thapsigargin, a cell survival assay (MTS assay: with use of a kit from Promega KK) was performed to obtain the number of cells that survived, and the ratio (cell survival rate) of the number of cells that survived in the presence of thapsigargin to the number of cells that survived in the absence of thapsigargin was calculated.
A general note: Tetrazolium assays rely on reduction of a dye to a coloured formazan, in cell work by metabolically active cells.

The test system is the same in data set [2]. The data set is described as follows: TUNEL apoptosis detection after RNA transfection. The note with it: 72 hours of culture after lipofection, versus control RNA. The format is cell-based. As for the experimental part: Control RNA (QIAGEN) or ubiquilin 2 siRNA was introduced into human urothelial cancer cell strain KU7 (donated by the School of Urology at the Department of Medicine in Keio University). The ubiquilin 2 siRNA used was siRNA synthesized with 5′-[…]-3′ (SEQ ID NO. 3) of the ubiquilin 2 gene as a Target sequence. The introduction of each RNA was performed by a Lipofection technique with a Lipofectamine™ RNAimax (Life Technologies Japan Ltd.).
After 72 hours of culture of the cells transfected with the RNA, TUNEL positive cells (i.e. cells having undergone apoptosis) were detected under a fluorescence microscope by the TUNEL (Terminal deoxynucleotidyl transferase dUTP nick end labeling) technique, and the percentage of the TUNEL positive cells to the total number of cells was calculated.

As to `C/C=C(/C)C(=O)O[C@H]1C(C)=C2[C@H]([C@@H]1OC(=O)CCCCCCC)[C@@](C)(OC(C)=O)C[C@H](OC(=O)CCC)[C@@]1(O)[C@H]2OC(=O)[C@@]1(C)O` [thapsigargin], the “cytotoxicity (cell survival rate)” value in data set [1] (KU7 cells transfected with control RNA (ubiquilin 2 gene not knocked down)) is “hardly exhibits cytotoxicity”; in data set [1] (KU7 cells transfected with ubiquilin 2 siRNA (ubiquilin 2 gene knocked down)), “markedly enhanced cytotoxicity”.
As to “ubiquilin 2 siRNA: siRNA synthesized with 5′-TCCCATAAAGAGACCCTAATA-3′ (SEQ ID NO. 3) of the ubiquilin 2 gene as a Target sequence (siRNA sequence not given here, only target site)”, the “apoptosis (TUNEL positive cells to DAPI positive cells, apoptosis rate)” value in data set [2] was “apoptosis (death of cells) was induced in the cancer cells”.
